From PubChem BioAssay (NCI)
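Each compound was tested at five concentrations against cells in 96-well plates for 48 hours. TGI: concentration producing complete growth inhibition.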

Key:
Experiment in all cases: growth of human tumour cells (NCI), 48 h
[1] = system: MOLT-4 leukemia
[2] = system: SK-OV-3 ovarian
[3] = system: 786-0 renal
[4] = system: HOP-62 NSCLC
[5] = system: SF-268 CNS
[6] = system: OVCAR-4 ovarian
[7] = system: DLD-1 colon
[8] = system: LXFL 529 NSCLC
[9] = system: HT29 colon
[10] = system: MALME-3M melanoma
[11] = system: SK-MEL-2 melanoma
[12] = system: NCI-H23 lung
[13] = system: SF-295 CNS
[14] = system: SK-MEL-28 melanoma
[15] = system: COLO 205 colon
[16] = system: SF-539 CNS
[17] = system: KM12 colon
[18] = system: RXF 393 renal
[19] = system: OVCAR-5 ovarian
[20] = system: K-562 leukemia
[21] = system: OVCAR-3 ovarian
[22] = system: NCI-H522 lung
[23] = system: TK-10 renal
[24] = system: NCI-H460 lung
[25] = system: M14 melanoma
[26] = system: HOP-18 NSCLC
[27] = system: RPMI-8226 leukemia
[28] = system: ACHN renal
[29] = system: SNB-78 CNS
[30] = system: HL-60(TB) leukemia
[31] = system: A498 renal
[32] = system: UACC-62 melanoma
[33] = system: IGROV1 ovarian
[34] = system: A549 NSCLC
[35] = system: XF 498 CNS
[36] = system: HOP-92 NSCLC
[37] = system: HCT-15 colon
[38] = system: HCC-2998 colon
[39] = system: CCRF-CEM leukemia
[40] = system: NCI-H226 lung
[41] = system: UO-31 renal
[42] = system: EKVX NSCLC
[43] = system: SW-620 colon
[44] = system: LOX IMVI melanoma
[45] = system: KM20L2 colon
[46] = system: SNB-19 CNS
[47] = system: M19-MEL melanoma
[48] = system: SNB-75 CNS
[49] = system: HCT-116 colon
[50] = system: OVCAR-8 ovarian
[51] = system: SN12C renal
[52] = system: U251 CNS
[53] = system: UACC-257 melanoma
[54] = system: CAKI-1 renal
[55] = system: DMS 273 small cell lung
[56] = system: SK-MEL-5 melanoma

Question: Which results are given for CCNc1nc2c(=O)n(C)c(=O)n(C)c2s1?
Answer: TGI [1]: > 100 µM; TGI [2]: > 100 µM; TGI [3]: > 100 µM; TGI [4]: > 100 µM; TGI [5]: > 100 µM; TGI [6]: > 100 µM; TGI [7]: > 100 µM; TGI [8]: > 100 µM; TGI [9]: > 100 µM; TGI [10]: > 100 µM; TGI [11]: > 100 µM; TGI [12]: > 100 µM; TGI [13]: > 100 µM; TGI [14]: > 100 µM; TGI [15]: > 100 µM; TGI [16]: > 100 µM; TGI [17]: > 100 µM; TGI [18]: > 100 µM; TGI [19]: > 100 µM; TGI [20]: > 100 µM; TGI [21]: > 100 µM; TGI [22]: > 100 µM; TGI [23]: > 100 µM; TGI [24]: > 100 µM; TGI [25]: > 100 µM; TGI [26]: > 100 µM; TGI [27]: > 100 µM; TGI [28]: > 100 µM; TGI [29]: > 100 µM; TGI [30]: > 100 µM; TGI [31]: > 100 µM; TGI [32]: > 100 µM; TGI [33]: > 100 µM; TGI [34]: > 100 µM; TGI [35]: > 100 µM; TGI [36]: > 100 µM; TGI [37]: > 100 µM; TGI [38]: > 100 µM; TGI [39]: > 100 µM; TGI [40]: > 100 µM; TGI [41]: > 100 µM; TGI [42]: > 100 µM; TGI [43]: > 100 µM; TGI [44]: > 100 µM; TGI [45]: > 100 µM; TGI [46]: > 100 µM; TGI [47]: > 100 µM; TGI [48]: > 100 µM; TGI [49]: > 100 µM; TGI [50]: > 100 µM; TGI [51]: > 100 µM; TGI [52]: > 100 µM; TGI [53]: > 100 µM

Question: Which TGI [1] does the source give for O=C1C2=C(c3ccccc31)C(c1ccccc1Cl)NC(=S)N2 (stereo not given) here?
Answer: > 100 µM

Question: And the TGI [2]?
Answer: > 100 µM

Question: What about the TGI [3] of the same compound?
Answer: > 100 µM

Question: What about the TGI [4] of the same compound?
Answer: > 100 µM

Question: What about the TGI [5] of the same compound?
Answer: > 100 µM

Question: What about the TGI [6] of the same compound?
Answer: > 100 µM

Question: What about the TGI [7] of the same compound?
Answer: > 100 µM

Question: And the TGI [8]?
Answer: > 100 µM

Question: What about the TGI [9] of the same compound?
Answer: > 100 µM

Question: And the TGI [10]?
Answer: > 100 µM

Question: And the TGI [11]?
Answer: > 100 µM

Question: What about the TGI [54] of the same compound?
Answer: > 100 µM

Question: What about the TGI [12] of the same compound?
Answer: > 100 µM

Question: What about the TGI [13] of the same compound?
Answer: > 100 µM

Question: What about the TGI [14] of the same compound?
Answer: > 100 µM

Question: And the TGI [15]?
Answer: > 100 µM

Question: What about the TGI [16] of the same compound?
Answer: > 100 µM

Question: And the TGI [17]?
Answer: > 100 µM

Question: What about the TGI [19] of the same compound?
Answer: > 100 µM

Question: And the TGI [20]?
Answer: > 100 µM

Question: What about the TGI [21] of the same compound?
Answer: > 100 µM

Question: And the TGI [22]?
Answer: > 100 µM

Question: And the TGI [23]?
Answer: > 100 µM

Question: And the TGI [24]?
Answer: > 100 µM

Question: What about the TGI [25] of the same compound?
Answer: > 100 µM

Question: What about the TGI [55] of the same compound?
Answer: > 100 µM

Question: What about the TGI [27] of the same compound?
Answer: > 100 µM

Question: And the TGI [28]?
Answer: > 100 µM

Question: What about the TGI [30] of the same compound?
Answer: > 100 µM

Question: And the TGI [31]?
Answer: > 100 µM

Question: And the TGI [32]?
Answer: > 100 µM

Question: And the TGI [33]?
Answer: > 100 µM

Question: What about the TGI [34] of the same compound?
Answer: > 100 µM

Question: And the TGI [35]?
Answer: > 100 µM

Question: And the TGI [56]?
Answer: 46 µM

Question: And the TGI [36]?
Answer: 68.4 µM

Question: What about the TGI [37] of the same compound?
Answer: > 100 µM

Question: What about the TGI [38] of the same compound?
Answer: > 100 µM

Question: And the TGI [39]?
Answer: > 100 µM

Question: What about the TGI [40] of the same compound?
Answer: > 100 µM

Question: What about the TGI [41] of the same compound?
Answer: > 100 µM

Question: What about the TGI [42] of the same compound?
Answer: > 100 µM

Question: What about the TGI [43] of the same compound?
Answer: > 100 µM

Question: What about the TGI [45] of the same compound?
Answer: > 100 µM

Question: And the TGI [46]?
Answer: > 100 µM

Question: What about the TGI [47] of the same compound?
Answer: > 100 µM

Question: And the TGI [48]?
Answer: > 100 µM

Question: What about the TGI [49] of the same compound?
Answer: > 100 µM

Question: And the TGI [50]?
Answer: > 100 µM

Question: What about the TGI [51] of the same compound?
Answer: > 100 µM

Question: And the TGI [52]?
Answer: > 100 µM

Question: And the TGI [53]?
Answer: > 100 µM
